In ChEMBL document CHEMBL1201862, “PubChem BioAssay data set” (2004):
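1) Cells in 96-well plates. 2) Compound, 48 h, 5 concentrations. 3) Linear interpolation between surrounding doses. 4) Unreached endpoint = highest concentration. GI50: concentration for 50% inhibition of growth.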 Active and inactive are the calls of the source. Rule as the data show it: active = GI50 up to about 1.1 µM and inactive = higher.

Key:
Assay in all cases: NCI anticancer screen, dose series, 48 h
[1] = system: SK-MEL-5
[2] = system: OVCAR-5
[3] = system: OVCAR-8
[4] = system: HT-29
[5] = system: COLO 205
[6] = system: MOLT-4
[7] = system: RXF 393
[8] = system: HCT-15
[9] = system: SNB-75
[10] = system: HCC 2998
[11] = system: NCI-H522
[12] = system: KM12
[13] = system: 786-0
[14] = system: HOP-92
[15] = system: Malme-3M
[16] = system: OVCAR-3
[17] = system: TK-10
[18] = system: CCRF-CEM
[19] = system: MDA-MB-435

Compound	GI50 [1]	GI50 [2]	GI50 [3]	GI50 [4]	GI50 [5]	GI50 [6]	GI50 [7]	GI50 [8] [µM]	GI50 [9]	GI50 [10]	GI50 [11]	GI50 [12]	GI50 [13]	GI50 [14]	GI50 [15]	GI50 [16]	GI50 [17]	GI50 [18]	GI50 [19]
O=[N+]([O-])c1ccc(C2CC(c3ccc(NCc4nc5ccccc5[nH]4)cc3)=NO2)cc1 (stereo not given)	9.04 µM (inactive)	> 100 µM (inactive)	37.7 µM (inactive)	38.5 µM (inactive)	> 100 µM (inactive)	6.92 µM (inactive)	> 100 µM (inactive)	30.7	> 100 µM (inactive)	85.5 µM (inactive)	27.9 µM (inactive)	21.1 µM (inactive)	39.6 µM (inactive)	> 100 µM (inactive)	34.4 µM (inactive)	3.56 µM (inactive)	89.3 µM (inactive)	15.6 µM (inactive)	
O=C1/C(=C/c2ccccc2)CN(C(=O)OCc2ccccc2)C/C1=C\c1ccccc1	16.8 µM (inactive)	17.4 µM (inactive)	13.1 µM (inactive)	7.69 µM (inactive)	16.1 µM (inactive)	2.76 µM (inactive)	13.4 µM (inactive)	10.9	> 31.6 µM (inactive)	7.06 µM (inactive)	6.76 µM (inactive)	5.47 µM (inactive)	11.5 µM (inactive)	> 69.5 µM (inactive)	30.4 µM (inactive)	1.68 µM (inactive)	27.5 µM (inactive)	2.08 µM (inactive)	
C/C(=N\NS(=O)(=O)c1ccc([N+](=O)[O-])cc1)c1ccc[n+]([O-])n1	2.35 µM (inactive)	2.63 µM (inactive)	1.76 µM (inactive)	2.11 µM (inactive)	2.67 µM (inactive)	2.92 µM (inactive)	1.34 µM (inactive)	5.16	1.95 µM (inactive)	9.46 µM (inactive)	1.95 µM (inactive)	2.39 µM (inactive)	2.36 µM (inactive)	2.94 µM (inactive)	3.09 µM (inactive)	2.23 µM (inactive)	11.6 µM (inactive)	3.05 µM (inactive)	
CN(C)C(=O)OC(Cn1cncn1)c1ccc(Cl)cc1Cl (stereo not given)	> 100 µM (inactive)	> 100 µM (inactive)	> 100 µM (inactive)	> 100 µM (inactive)	> 100 µM (inactive)	> 100 µM (inactive)	> 100 µM (inactive)	> 100	> 100 µM (inactive)	> 100 µM (inactive)	53.5 µM (inactive)	> 100 µM (inactive)	> 100 µM (inactive)	> 100 µM (inactive)	> 100 µM (inactive)	> 100 µM (inactive)	> 100 µM (inactive)		
CC(C)/C=C1\CCC(CN2CCOCC2)C1=O (stereo not given)	18.6 µM (inactive)	22.5 µM (inactive)	11.1 µM (inactive)	6.7 µM (inactive)	6.85 µM (inactive)	2.99 µM (inactive)	4.94 µM (inactive)	5.85		20.2 µM (inactive)	2.01 µM (inactive)	10.5 µM (inactive)	3.66 µM (inactive)	18.4 µM (inactive)	15.7 µM (inactive)	18.2 µM (inactive)	12.9 µM (inactive)	2.65 µM (inactive)	
CCCCCCCCCCCCCC(=S)N/C=C/OC	25 µM (inactive)	> 100 µM (inactive)	38 µM (inactive)	21.3 µM (inactive)	27.1 µM (inactive)		26.9 µM (inactive)	22.9	33.7 µM (inactive)	19 µM (inactive)	20.3 µM (inactive)	28.2 µM (inactive)	30.8 µM (inactive)	25.8 µM (inactive)	26.6 µM (inactive)	23.6 µM (inactive)	> 100 µM (inactive)	21.4 µM (inactive)	
CCCCNC(=NC#N)NCCCC	> 100 µM (inactive)	> 100 µM (inactive)	> 100 µM (inactive)	> 100 µM (inactive)	38.2 µM (inactive)	> 100 µM (inactive)	34.5 µM (inactive)	62.4	> 100 µM (inactive)	> 100 µM (inactive)	> 100 µM (inactive)	> 100 µM (inactive)	49.5 µM (inactive)	> 100 µM (inactive)	> 100 µM (inactive)	> 100 µM (inactive)	> 100 µM (inactive)		
OCC(O)C(O)C(C=NNc1ncnc2ccc(Br)cc12)=NNc1ncnc2ccc(Br)cc12 (stereo not given)	0.968 µM (active)	3.58 µM (inactive)	0.533 µM (active)	0.556 µM (active)	0.255 µM (active)	0.258 µM (active)	2.14 µM (inactive)		2.46 µM (inactive)		0.383 µM (active)	2.72 µM (inactive)	0.834 µM (active)	2.24 µM (inactive)	0.378 µM (active)	0.339 µM (active)	8.45 µM (inactive)		3.38 µM (inactive)
O=S(=O)(c1ccccc1)C1CN2OC1(S(=O)(=O)c1ccccc1)CC2c1ccc(Br)cc1 (stereo not given)	90.6 µM (inactive)	> 100 µM (inactive)	> 100 µM (inactive)	> 100 µM (inactive)		> 100 µM (inactive)	13.2 µM (inactive)	> 100	5.21 µM (inactive)	> 100 µM (inactive)	34 µM (inactive)	> 100 µM (inactive)	38.1 µM (inactive)	66.2 µM (inactive)	> 100 µM (inactive)	84.7 µM (inactive)	59 µM (inactive)	> 100 µM (inactive)	
CN(CC(=O)O)S(=O)(=O)c1ccc(Cl)cc1	> 100 µM (inactive)	> 100 µM (inactive)	> 100 µM (inactive)	> 100 µM (inactive)	> 100 µM (inactive)	> 100 µM (inactive)	> 100 µM (inactive)	> 100	> 100 µM (inactive)	> 100 µM (inactive)	> 100 µM (inactive)	> 100 µM (inactive)	> 100 µM (inactive)	> 100 µM (inactive)	> 100 µM (inactive)	> 100 µM (inactive)	> 100 µM (inactive)	> 100 µM (inactive)	
N#Cc1cnc(-n2[nH]c3c(c2=O)CCCC3)[nH]c1=O	48.1 µM (inactive)	74.6 µM (inactive)		41.2 µM (inactive)	38.5 µM (inactive)	44.5 µM (inactive)	> 100 µM (inactive)	41.1	0.264 µM (active)		57.3 µM (inactive)	21.8 µM (inactive)	49.2 µM (inactive)	35.2 µM (inactive)	50 µM (inactive)		51.5 µM (inactive)	31.9 µM (inactive)	54.5 µM (inactive)
CCOC(=O)/N=C(\N)SCc1ccccc1	> 100 µM (inactive)	> 100 µM (inactive)	> 100 µM (inactive)	> 100 µM (inactive)		26.5 µM (inactive)	> 100 µM (inactive)	> 100	> 100 µM (inactive)	> 100 µM (inactive)	> 100 µM (inactive)	> 100 µM (inactive)	> 100 µM (inactive)	> 100 µM (inactive)	> 100 µM (inactive)		> 100 µM (inactive)	24.7 µM (inactive)	
O=C1C(Cl)C(c2ccc(O)cc2)N1n1cnc2ccccc2c1=O (stereo not given)	52.8 µM (inactive)	> 79.8 µM (inactive)	16.1 µM (inactive)	29.4 µM (inactive)	25.3 µM (inactive)	25.6 µM (inactive)	19 µM (inactive)	27.4	49 µM (inactive)	61.8 µM (inactive)	16.6 µM (inactive)	51.1 µM (inactive)	28.8 µM (inactive)	38.2 µM (inactive)	37.2 µM (inactive)	32 µM (inactive)	40.6 µM (inactive)	26.3 µM (inactive)	
CCCCCCCCCCCOC(=S)NC(C)C	17 µM (inactive)	24.7 µM (inactive)	16.6 µM (inactive)	17.1 µM (inactive)		16.7 µM (inactive)	19.8 µM (inactive)	17.5	23.1 µM (inactive)	17 µM (inactive)	18.2 µM (inactive)	19.7 µM (inactive)	19.1 µM (inactive)	14.1 µM (inactive)	21.8 µM (inactive)		28.2 µM (inactive)	23.5 µM (inactive)	
O=C(/C=N/c1ccccc1[S-])c1ccco1.O=C(/C=N/c1ccccc1[S-])c1ccco1.[Zn+2]	16.9 µM (inactive)	16.8 µM (inactive)	6.37 µM (inactive)	18.7 µM (inactive)	17.5 µM (inactive)	5.2 µM (inactive)		8.59	8.28 µM (inactive)	10 µM (inactive)	10 µM (inactive)	12.8 µM (inactive)	8.3 µM (inactive)	11.5 µM (inactive)	10 µM (inactive)	15.2 µM (inactive)	16.7 µM (inactive)	2.95 µM (inactive)	
COc1ccc(C2Oc3ccc(O)cc3[C@@H]2C)cc1OC (stereo not given in full)	48.5 µM (inactive)	> 100 µM (inactive)	> 100 µM (inactive)	> 100 µM (inactive)	> 100 µM (inactive)	37.6 µM (inactive)	58.5 µM (inactive)	52.6	30.2 µM (inactive)	> 100 µM (inactive)	27.5 µM (inactive)	> 100 µM (inactive)	> 100 µM (inactive)	23 µM (inactive)	> 100 µM (inactive)	> 100 µM (inactive)	> 100 µM (inactive)	17.5 µM (inactive)	
CCCC1(CC(=O)O)OCCc2c1[nH]c1ccccc21 (stereo not given) [PRODOLIC ACID]	> 100 µM (inactive)	> 100 µM (inactive)	> 100 µM (inactive)		> 100 µM (inactive)	> 100 µM (inactive)	> 100 µM (inactive)	> 100	69.3 µM (inactive)	> 100 µM (inactive)		> 100 µM (inactive)	> 100 µM (inactive)	> 100 µM (inactive)	> 100 µM (inactive)	> 100 µM (inactive)	> 100 µM (inactive)	> 100 µM (inactive)	
